“Also recorded” adds a separate entry of the source.
How the values were obtained:
[1] = system: human white adipocyte cell line; test: Cellular respiration in human white adipocytes; assay type: cell-based; settings: 10 μM for 4 days
Procedure: Human immortalized brown and white preadipocytes were obtained from Dr. Yu-Hua Tseng (Joslin Diabetes Center, Harvard Medical School, USA). The generation of the two cell lines from human neck adipose tissue biopsies and immortalization was performed as previously described but from a different donor. Cells were cultured in high glucose DMEM supplemented with 10% FBS and antibiotics. Two days after reaching confluence, cells were treated with 30 μM biotin, 500 nM insulin, 17 μM pantothenate, 100 nM dexamethasone, 2 nM 3,3′,5-Triiodo-L-thyronine, 500 μM IBMX, 30 μM indomethacin and 1 μM rosiglitazone, for 12 days. […]
Cellular respiration was measured using a Seahorse XF24 or XF96 analyzer (Agilent) following known protocols Immortalized brown adipocytes were differentiated in 6-well plates and replated in the Seahorse XF24 plates at a density of 50,000 cells per well using trypsin and collagenase type II. […] Oxygen consumption rates were measured before and after the sequential injection of 1 μM oligomycin, 1 μM FCCP, and 0.5 μM rotenone/antimycin A. For these cells, results were normalized to cell count determined by nuclei fluorescent staining with Hoescht staining imaged on Cytation 5 Imaging Reader and analysis with Gen5 software (BioTek). […] Maximal respiration was determined after FCCP injection.

C57BL/6J male mice = test: Thermogenesis in vivo after subcutaneous injection; settings: single subcutaneous injection 1.5 mg/kg
Procedure: All mouse studies were conducted in accordance with and approved by the Institutional Animal Research Committee of the University of California, Los Angeles. C57BL/6J male mice were obtained from the Jackson Laboratory. For the drug injection, Z160 (diluted in 100 μl DMSO) was injected subcutaneously, near BAT, at 1.5 mg/kg body weight and compared with vehicle alone. […] Body temperature was obtained with a rectal probe (BAT-12, Physitemp). Aspartate aminotransferase (AST) activity was determined from plasma according to the manufacturer's protocol (MAK055, Sigma).

NRVM = test: Hypertrophic gene expression in neonatal rat ventricular myocytes; assay type: cell-based; settings: 10 μM Z160 concomitantly with 60 μM isoproterenol or 50 μM phenylephrine, 2 days
Procedure: Rat H9c2 cells were grown in DMEM supplemented with 10% FBS, 25 mM glucose, 1 mM pyruvate, and 2 mM glutamine Neonatal rat ventricular myocytes (NRVM) were isolated and cultured as previously described. Briefly, 2-4 day old rats were sacrificed and myocytes and fibroblasts were isolated and separated using a Percoll density gradient. Following isolation, NRVMs were plated on gelatin-coated plates in DMEM containing 10% FBS, 25 mM glucose, 1 mM pyruvate, and 2 mM glutamine The next day, FBS was replaced by 1× insulin-transferrin-selenium supplement and the cells were treated with vehicle or 10 μM Z160 for 2 days, with or without 60 μM isoproterenol or 50 μM phenylephrine.
RNA levels were measured by qPCR according to known methods. Briefly, RNA was extracted with TRIzol (Invitrogen) and reverse transcribed with iScript (Bio-Rad). Real-time PCR analysis was performed with a CFX Connect (Bio-Rad).

[2] = system: immortalized brown adipocytes; test: Global gene expression analysis (microarray, DAVID functional annotation) in immortalized brown adipocytes; assay type: cell-based, mouse
Procedure: Mouse RNA levels were measured by qPCR according to known methods. Data were normalized to B2m and Tbp reference genes. Human RNA was extracted using an RNA Mini Plus kit (Zymo) and gene expression determined by Taqman assay. The 1-step qPCR was run on a QuantStudio 12K Flex Real Time PCR System (ThermoFisher) using the following protocol: 50° C. for 5 minutes, 95° C. for 20 seconds, 40 cycles of 95° C. for 15 seconds and 60° C. for 60 seconds. Data were normalized to PPIA and PSMB2 reference genes. For global gene expression analysis, RNA isolated from brown adipocytes treated with compounds as indicated (four biological replicates) was hybridized to Illumina mouse Ref 8 V2.0 bead chips at the University of California, Los Angeles Neuroscience Genomics Core as previously described. Data were processed with GenomeStudio V2011.1 using the quantile normalization, background subtraction, and a present call of P<0.05.
To assess the effects of Z160 on global transcription in mouse brown adipocytes, microarray analysis of RNA isolated from immortalized brown adipocytes treated with either vehicle or Z160 was performed. […] The results of the microarray were corroborated using qPCR for representative genes from each electron transport chain complex (FIG. 5B).

[3] = genes >1.5-fold down-regulated, DAVID
[4] = genes >1.5-fold up-regulated, DAVID

Structure (SMILES): COc1ccc(NC(=O)CSc2nc3ccccc3c(=O)[nH]2)c(OC)c1 [Z160]
- maximal respiration [1]: increased
- mitochondrial respiration (uncoupled) [1]: increased
- Ucp1 mRNA and protein levels in BAT (C57BL/6J male mice): elevated
- expression of genes implicated in mitochondrial function and lipolysis in BAT (C57BL/6J male mice): enhanced expression
- plasma glucose levels (C57BL/6J male mice): 157.6 ± 26.2 mg/dL
- body temperature (C57BL/6J male mice; measured 24 h later): 38.3 °C
- increase in body temperature (C57BL/6J male mice; measured 24 h later, vs vehicle): 0.8 °C
- liver toxicity assessed by circulating aspartate aminotransferase (AST) levels (C57BL/6J male mice; plasma): No liver toxicity
- effect on hypertrophic gene expression profile (Nppa, Nppb, Pln) induced by isoproterenol or phenylephrine (NRVM): prevented the induction of a hypertrophic gene expression profile; also recorded: reverses the effect of ISO and PE
- Genes, GO cellular component Down: Basement membrane [2, 3]: 17
- Genes, GO cellular component Down: Cell surface [2, 3]: 45
- Genes, GO cellular component Down: Cytoplasm [2, 3]: 178
- Genes, GO cellular component Down: Extracellular exosome [2, 3]: 119
- Genes, GO cellular component Down: Extracellular region [2, 3]: 86
- Genes, GO cellular component Down: Extracellular space [2, 3]: 72
- Genes, GO cellular component Down: Focal adhesion [2, 3]: 25
- Genes, GO cellular component Down: Proteinaceous extracellular matrix [2, 3]: 35
- Genes, GO cellular component Up: Mitochondrial inner membrane [2, 4]: 27
- Genes, GO cellular component Up: Mitochondrion [2, 4]: 88
- Ucp1 increase (microarray) ([2]; microarray, vs vehicle): 2.5 fold
- probes down-regulated by at least 1.5-fold ([2]; microarray, vs vehicle): 504 probes
- probes up-regulated by at least 1.5-fold ([2]; microarray, vs vehicle): 581 probes

— patent publication US12661355B2, “Compounds and methods for inducing UCP1 expression” (The Regents of the University of California, priority 2020, dated 2026)
